Structures can show the parent of a compound that is named as a salt.
Experiments:
[1] = test system: trypsin-like site of 26S proteasomes; assay: Inhibition of purified 26S proteasomes, substrate Ac-RLR-amc; type: biochemical, rabbit; conditions: for IC50 (Chym-L)/IC50 (Tr-L): rabbit 26S proteasomes
[2] = target: T1, chymotrypsin-like site of 26S proteasomes (Oryctolagus cuniculus, UniProt G1T4Q9); assay: Inhibition of purified 26S proteasomes, substrate Suc-LLVY-amc; type: biochemical, rabbit; conditions: >>30 no inhibition at 30 μM, >30 inhibition between 10 and 50% at 30 μM, read-out: IC50 for sites in 26S proteasomes: Chym-L
T1 sequence (G1T4Q9 1-263): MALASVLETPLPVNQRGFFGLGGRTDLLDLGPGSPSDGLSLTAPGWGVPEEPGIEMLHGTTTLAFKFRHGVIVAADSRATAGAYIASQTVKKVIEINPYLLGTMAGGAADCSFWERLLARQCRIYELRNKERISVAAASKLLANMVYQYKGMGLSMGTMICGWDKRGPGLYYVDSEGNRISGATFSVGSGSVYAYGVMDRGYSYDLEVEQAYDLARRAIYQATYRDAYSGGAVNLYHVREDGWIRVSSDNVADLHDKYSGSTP
Description: (§1) 26S proteasomes were purified from rabbit muscle using known methods (Screen, et al. (2010) supra). […] NOVEX Bis-Tris gels (12%, Invitrogen) with MOPS running buffer were used for electrophoretic separation of catalytic subunits modified by active-site probes. Inhibition of active sites inside cells was assayed using luminescent PROTEASOMEGLO assay (Promega; Moravec, et al. (2009) Anal. Biochem. 387:294-302) according to known methods (Britton, et al. (2009) supra).

[3] = target: T2, trypsin-like site of 26S proteasomes (Oryctolagus cuniculus, UniProt G1SWK8); assay: Inhibition of purified 26S proteasomes, substrate Ac-RLR-amc; type: biochemical, rabbit; conditions: purified 26S proteasomes; >>30 no inhibition at 30 μM, >30 inhibition between 10 and 50% at 30 μM; read-out: IC50 for sites in 26S proteasomes: Tr-L
T2 construct: IC50 for sites in 26S proteasomes: Tr-L; other: purified 26S proteasomes; other: 26S proteasomes from rabbit muscles
T2 sequence (G1SWK8 1-271): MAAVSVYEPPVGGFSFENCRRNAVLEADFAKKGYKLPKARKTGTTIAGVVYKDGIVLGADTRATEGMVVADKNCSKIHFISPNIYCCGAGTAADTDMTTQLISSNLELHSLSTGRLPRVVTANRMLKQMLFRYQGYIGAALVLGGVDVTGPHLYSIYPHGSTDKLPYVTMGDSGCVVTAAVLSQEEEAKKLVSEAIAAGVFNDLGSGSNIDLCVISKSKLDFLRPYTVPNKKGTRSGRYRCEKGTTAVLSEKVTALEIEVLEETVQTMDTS

[4] = target: caspase-like site of 26S proteasomes (Oryctolagus cuniculus, UniProt A0A5F9DQW2); assay: Inhibition of purified 26S proteasomes, substrate Ac-nLPnLD-amc; type: biochemical, rabbit; conditions: >>30 no inhibition at 30 μM, >30 inhibition between 10 and 50% at 30 μM, read-out: IC50 for sites in 26S proteasomes: Casp-L
Description: as §1

β5 proteasome subunit = target: T3, β5 proteasome subunit (Homo sapiens, UniProt P20618+P28074); assay: Competition assay in HEK-293T cell lysate with MV151; type: biochemical; conditions: HEK293 extracts
T3 construct: Whole cell lysates of HEK-293T or EL-4 cells were made by sonication; endogenous in cells; host or cells: HEK-293T
Description: Whole cell lysates of HEK-293T or EL-4 cells were made by sonication in 3 volumes of lysis buffer containing 50 mM Tris pH 7.5, 1 mM DTT, 5 mM MgCl2, 250 mM sucrose, 2 mM ATP, 0.025% digitonin. Protein concentration was determined by the Bradford assay. Cell lysates (13.5 μg total protein for HEK lysates and 9 μg total protein for EL-4 lysates) were exposed to the inhibitors for 1 hour at 37° C. prior to incubation with MV151 (0.5 μM) or BODIPY-TMR-epoxomicin (0.5 μM) for an additional 1 hour at 37° C. Reaction mixtures were boiled with Laemmli's buffer containing (3-mercaptoethanol for 5 minutes before being resolved by 12.5% SDS-PAGE. In-gel detection of residual proteasome activity was performed in the wet gel slabs directly on the TYPHOON Variable Mode Imager (Amersham Biosciences) using the Cy3/Tamra settings (λex 532 nm, λem 560 nm) to detect MV151, BODIPY-TMR-epoxomicin and Cy2/Fam settings (λex 488 nm, λem 520 nm) to detect compounds 39 and 59.
The inhibition potential of the inhibitors for each of the catalytically active subunits was assessed in competition assays employing extracts of human embryonic kidney cells (HEK-293T) and mouse lymphoma cells (EL-4) in combination with the fluorescent broad spectrum proteasome probe MV151 (Verdoes, et al. (2006) Chem. Biol. 13:1217-1226). Competitive inhibition of a proteasome active site is reflected by the disappearance of the corresponding band on a gel.

[5] = test system: trypsin-like sites (β2) of proteasome in MM cells; assay: PROTEASOMEGLO assay of proteasome inhibition in MM cells; type: cell-based
Description: Proteasome inhibition in MM cells was measured with luminogenic substrates using PROTEASOMEGLO assay (Promega). […] An aliquot of culture was pelleted and medium was removed and replaced with PBS. The resulting cell suspension was mixed with luminogenic substrates in the manufacturer-provided lysis/assay buffer. After 3 minutes mixing on an orbital shaker, the plate was incubated in the dark for additional 17 minutes, followed by the measurements of the luminescence, performed in triplicate for each substrate/data point. Data were analyzed as for purified proteasomes. […] Cells (1×10^6 per well of a 6-well plate) were incubated with the inhibitors for 4 hours at 37° C. and this was followed by a 2 hour incubation with 5 μM BODIPY-TMR-epoxomicin. Subsequently, the medium was removed and the cells were washed with PBS and harvested. […] The supernatant was collected and the protein concentration was determined by the Bradford assay, and used to normalize gel loading. The samples were analysed by SDS-PAGE and fluorescent densitometry as described for competition experiment in cell lysates. IC50 values were calculated from three independent experiments using […] PRISM software.

Cathepsin B, H, L, S = assay: Cathepsin activity with pan-cathepsin substrate Z-FR-amc; type: cell-based; conditions: NCI-H929 cells, 6 hour treatment
Description: Cathepsin B, H, L, S activity was measured with pan-cathepsin substrate Z-FR-amc (Kirschke & Wiederanders (1994) Methods Enzymol. 244:500-11) in extracts of cytosol-less cells at pH 6.0 (Screen, et al. (2010) supra). Cathepsin D activity was measured in cytosol-less extracts using SENSOLYTE 520 Cathepsin D Fluorometric Assay Kit (AnaSpec). Combined cathepsin D and E activity was measured using the same kit, in which cathepsin D substrate provided with the kit was replaced with 7-Methoxycoumarin-[…](Dnp)-X′-NH2 (SEQ ID NO:10; where “X′” stand for D-Arg) internally quenched fluorogenic substrate of cathepsin D and E. In this case, pH 3.0 assay buffer used for cell extraction. All activity observed using both procedures was inhibited by more than 98% by specific inhibitor of aspartic proteases pepstatin A.

RPMI-8226 cells = assay: ALAMAR BLUE cell viability assay; type: cell-based; conditions: E-64d 10 μM
Description: RPMI-8226 and NCI-H929 cells were cultured in RPMI-1640 supplemented with 10% fetal bovine serum, penicillin, streptomycin, and plasmocin in 5% CO2 humidified incubator. HEK-293T cells were cultured in DMEM containing 10% fetal calf serum, 10 units/mL penicillin, and 10 μg/mL streptomycin in a 7% CO2 humidified incubator. Viability of multiple myeloma cells was measured with ALAMAR BLUE mitochondrial dye conversion assay. Viability of peripheral blood mononuclear cells (PBMNCs) was measured using CELL TITER-GLO luminescent cell viability assay (Promega), which is based on quantification of ATP present in the cells. Caspase-3/7 activity was measured using APO-ONE 3/7 homogeneous assay (Promega).

caspase-like site of 26S proteasomes, sequence (A0A5F9DQW2 1-212): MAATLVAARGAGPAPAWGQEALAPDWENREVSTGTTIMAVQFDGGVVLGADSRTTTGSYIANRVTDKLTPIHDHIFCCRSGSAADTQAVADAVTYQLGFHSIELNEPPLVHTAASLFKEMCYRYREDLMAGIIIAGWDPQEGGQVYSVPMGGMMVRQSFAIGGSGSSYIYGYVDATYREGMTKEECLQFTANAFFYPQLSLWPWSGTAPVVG

CC(C)C[C@@H](/C=C/S(C)(=O)=O)NC(=O)[C@H](CC(C)C)NC(=O)[C@H](Cc1ccc(CN)cc1)NC(=O)[C@H](Cc1ccccc1)N=[N+]=[N-] [Compound 55, N3-Phe-Phe(4-CH2NH2.TFA)-Leu-Leu-VS]
IC50 (Chym-L)/IC50 (Tr-L) [1]: 0.057 | IC50 [2]: 0.01 µM

CC(C)C[C@@H](/C=C/S(C)(=O)=O)NC(=O)[C@H](CC(C)C)NC(=O)[C@H](Cc1ccncc1)NC(=O)[C@H](Cc1ccccc1)N=[N+]=[N-] [Compound 57, N3-Phe-Ala(4-pyridine)-Leu-Leu-VS]
IC50 [3]: 24 µM | IC50 (Chym-L)/IC50 (Tr-L) [1]: 0.00021 | IC50 [4]: > 30 µM | inhibition of chymotrypsin-like sites in extracts versus purified proteasomes (β5 proteasome subunit): less potently and selectively in extracts than in purified proteasomes

CC(C)C[C@H](NC(=O)[C@H](Cc1ccccc1)N=[N+]=[N-])C(=O)N[C@@H](CC(C)C)C(=O)N[C@@H](Cc1ccc(CN)cc1)C(=O)[C@@]1(C)CO1 [Compound 4b, N3Phe-Leu-Leu-Phe(4-CH2NH2)EK]
IC50 [3]: 0.25 µM | IC50 [4]: 11 µM

BODIPY-triazole-Phe-Phe(4-CH2NH2.TFA)-Leu-Phe(4-CH2NH2.TFA)-VS [Compound 59]
specificity after attachment of BODIPY-FL dye [1]: reduced the specificity

CC(C)C[C@H](NC(=O)[C@H](Cc1ccc(N)cc1)NC(=O)[C@H](Cc1ccccc1)N=[N+]=[N-])C(=O)N[C@H](/C=C/S(C)(=O)=O)Cc1ccc(CN)cc1 [Compound 51, N3-Phe-Phe (4-NH2. TFA)-Leu-Phe (4-CH2NH2.TFA)-VS]
IC50 [3]: 0.03 µM | IC50 [2]: 3.4 µM | difference in IC50 for trypsin-like activity between NCI-H929 and RPMI-8226 [5]: five-fold | inhibition of cathepsins (Z-FR-amc) (Cathepsin B, H, L, S): behaved similarly to 4a

CC(C)C[C@@H](/C=C/S(C)(=O)=O)NC(=O)[C@H](CC(C)C)NC(=O)[C@H](Cc1ccc(N)cc1)NC(=O)[C@H](Cc1ccccc1)N=[N+]=[N-] [Compound 56, N3-Phe-Phe(4-NH2-TFA)-Leu-Leu-VS]
IC50 [3]: 24 µM | IC50 (Chym-L)/IC50 (Tr-L) [1]: <0.00017 | IC50 [2]: < 0.004 µM | IC50 [4]: > 30 µM | inhibition of chymotrypsin-like sites in extracts versus purified proteasomes (β5 proteasome subunit): less potently and selectively in extracts than in purified proteasomes

CC(C)C[C@H](NC(=O)[C@H](Cc1ccccc1)N=[N+]=[N-])C(=O)N[C@@H](CC(C)C)C(=O)N[C@H](/C=C/S(C)(=O)=O)Cc1ccncc1 [Compound 46, N3-Phe-Leu-Leu-Ala(4-pyridine)-VS]
IC50 [2]: < 0.1 µM | IC50 [4]: > 30 µM

Cc1c(O)cccc1C(=O)N[C@H](C(=O)N[C@@H](CO)C(=O)N[C@H](/C=C/S(C)(=O)=O)Cc1ccc(N)cc1)C(C)C [Compound 49, HMB-Val-Ser-Phe(4-NH2)-VS]
IC50 [3]: 0.11 µM | IC50 (Chym-L)/IC50 (Tr-L) [1]: 0.36 | IC50 [2]: 0.04 µM | IC50 [4]: 23 µM

CC(C)C[C@H](NC(=O)[C@H](Cc1ccc(CN)cc1)NC(=O)[C@H](Cc1ccccc1)N=[N+]=[N-])C(=O)N[C@H](/C=C/S(C)(=O)=O)Cc1ccncc1 [Compound 54, N3-Phe-Phe (4-CH2NH2)-Leu-Ala (4 pyridine)-VS]
IC50 (Chym-L)/IC50 (Tr-L) [1]: 9.1 | IC50 [4]: > 30 µM

CC(C)C[C@H](NC(=O)[C@H](Cc1ccc(CN)cc1)NC(=O)[C@H](Cc1ccccc1)N=[N+]=[N-])C(=O)N[C@H](/C=C/S(C)(=O)=O)Cc1ccc(N)cc1 [Compound 53, N3-Phe-Phe (4-CH2NH2)-Leu-Phe (4-NH2)—VS]
IC50 (Chym-L)/IC50 (Tr-L) [1]: 59 | IC50 [4]: > 30 µM

CC(C)C[C@H](NC(=O)[C@H](Cc1ccncc1)NC(=O)[C@H](Cc1ccccc1)N=[N+]=[N-])C(=O)N[C@H](/C=C/S(C)(=O)=O)Cc1ccc(CN)cc1 [Compound 50, N3-Phe-Ala (4-pyridine)-Leu-Phe (4-CH2NH2-TFA)-VS]
inhibition of cathepsins (Z-FR-amc) (Cathepsin B, H, L, S): partly reduced cathepsin activity

CC(C)C[C@H](NC(=O)[C@H](Cc1ccccc1)N=[N+]=[N-])C(=O)N[C@@H](CC(C)C)C(=O)N[C@@H](Cc1ccc(N)cc1)C(=O)[C@@]1(C)CO1 [Compound 45b, N3-Phe-Leu-Leu-Phe(4-NH2)-EK]
IC50 [2]: 0.01 µM | IC50 [4]: > 30 µM

CC(C)C[C@H](NC(=O)[C@H](Cc1ccccc1)N=[N+]=[N-])C(=O)N[C@@H](CC(C)C)C(=O)N[C@H](/C=C/S(C)(=O)=O)Cc1ccc(N)cc1 [Compound 45a, N3-Phe-Leu-Leu-Phe(4-NH2)-VS]
IC50 [3]: 0.11 µM | IC50 [2]: 0.04 µM | IC50 [4]: 23 µM

CCOC(=O)[C@H]1O[C@@H]1C(=O)N[C@@H](CC(C)C)C(=O)NCCC(C)C [Compound E-64d]
sensitization to carfilzomib (RPMI-8226 cells): did not sensitize cells to carfilzomib

CC(C)C[C@H](NC(=O)[C@H](Cc1ccccc1)N=[N+]=[N-])C(=O)N[C@@H](CC(C)C)C(=O)N[C@H](/C=C/S(C)(=O)=O)CCCCN [Compound 47, N3-Phe-Leu-Leu-Lys-VS]
IC50 [4]: > 30 µM

CC(C)C[C@H](NC(=O)[C@H](Cc1ccccc1)NC(=O)[C@H](Cc1ccccc1)N=[N+]=[N-])C(=O)N[C@H](/C=C/S(C)(=O)=O)Cc1ccccc1 [Compound 58, N3-Phe-Phe-Leu-Phe-VS]
IC50 [3]: > 30 µM | IC50 [4]: > 30 µM

Reference: patent US8609610B2, “Inhibitors of the trypsin-like site of the proteasome and methods of use thereof” (Trustees of Dartmouth College, priority 2011, dated 2013)
